The subject of assay [1] is reserpine-induced hypothermia. As to the kind of experiment: Anti-reserpine activity: prevention of reserpine-induced hypothermia. It counts as in vivo, mice. To be noted: Mus musculus, 4 h; oral, 30 min before reserpine 2.5 mg/kg endoperitoneally; rectal temperature four hours after reserpine; dose reducing symptoms by 50% vs control. From the text:
(§1) 1-oxo-1H-naphtho[2,1-b]pyran derivatives as well as the pharmaceutical compositions containing them, being the object of the present invention, are active on the central nervous system as antidepressive agents. The antidepressive activity of the compounds of the invention, evaluated in mice from the prevention of reserpine-induced blepharospasm and hypothermia, is shown in the following Table, where the antireserpine effect is indicated as ED50 values, that is, doses able to prevent reserpine-induced blepharospasm and hypothermia by reducing symptoms of 50% if compared with the values obtainable in control animals.
(§2) Reserpine was administered endoperitoneally at a dosage of 2.5 mg/kg, and the compounds tested were administered orally 30 minutes before administration of reserpine. Recording of blepharospasm (evaluated in scores according to the technique described by Rubin B. et al in J. Pharmacol. 120, 125, 1957) and measurement of body temperature (by means of a rectal thermocouple […]) were taken an hour, and respectively, four hours after the administration of reserpine. In particular, the compounds object of the present invention not only allow to obtain a lower general toxicity in comparison with standard antidepressive agents, but also a lower cardiac toxicity as well as the lack of peripheral atropine effects.

The subject of assay [2] is reserpine-induced blepharospasm. The assay can be described thus: Anti-reserpine activity: prevention of reserpine-induced blepharospasm. It counts as in vivo, mice. To be noted: Mus musculus, 1 h; oral, 30 min before reserpine 2.5 mg/kg endoperitoneally; scored one hour after reserpine; dose reducing symptoms by 50% vs control.
Source text: as §1, §2

Data on two compounds can be found in US4001424A, “1-Oxo-1H-naphtho [2,1-b] pyran derivatives for treating depression” (Carlo Erba S.p.A., priority 1973, dated 1977).

The ED50 is the midpoint of the dose-response relation. A higher ED50 goes with a need for a large dose.

With `CCN(C)c1cc(=O)c2c(ccc3ccccc32)o1` [1-oxo-3-(N-methyl-N-ethyl)amino-1H-naphtho[2,1-b]pyran], the ED50 in assay [1] came to 15 mg/kg; in assay [2] it was 4 mg/kg.

For `CN(C)c1cc(=O)c2c(ccc3ccccc32)o1` [1-oxo-3-dimethylamino-1H-naphtho[2,1-b]pyran], the 50% effective dose (ED50) worked out at 21 mg/kg in assay [1] and 8.7 mg/kg in assay [2].
